Results published in the supplement of paper PMC10307832.

How the values were obtained:
Experiment in all cases: relative viability (nuclei count vs DMSO), 5 days (fraction); higher = more cells survive
QS11 + AZD7762 = compound: C1CC2=C(C1)C=C(C=C2)OC3=NC(=C4C(=N3)N(C=N4)CC5=CC=C(C=C5)C6=CC=CC=C6)N[C@@H](CC7=CC=CC=C7)CO [QS11] + NC(=O)Nc1cc(-c2cccc(F)c2)sc1C(=O)N[C@H]1CCCNC1 [AZD7762] (partner 0.2 µM)
Method in brief: (§1)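 Relative viability equals treated-well nuclei counts divided by vehicle-well nuclei counts. Counts came from 4× images of lung cancer cell lines grown in 1536-well plates for 5 days after pin-tool dosing on the day after seeding. Dosing used one drug alone or a fixed anchor-drug dose plus five library-drug doses (not always all listed) in √10 steps, and values are medians of duplicate plates.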

AZ628 + Palbociclib = compound: CC1=C(C=C(C=C1)NC(=O)C2=CC(=CC=C2)C(C)(C)C#N)NC3=CC4=C(C=C3)N=CN(C4=O)C [AZ628] + CC(=O)c1c(C)c2cnc(Nc3ccc(N4CCNCC4)cn3)nc2n(C2CCCC2)c1=O [Palbociclib] (partner 0.5 µM)
Method in brief: as §1

[1] = compound: C[As](C)SC[C@H](NC(=O)CC[C@H](N)C(=O)O)C(=O)NCC(=O)O [Darinaparsin] + CC(=O)c1c(C)c2cnc(Nc3ccc(N4CCNCC4)cn3)nc2n(C2CCCC2)c1=O [Palbociclib] (partner 0.5 µM)
Method in brief: as §1

QS11 + Navitoclax = compound: C1CC2=C(C1)C=C(C=C2)OC3=NC(=C4C(=N3)N(C=N4)CC5=CC=C(C=C5)C6=CC=CC=C6)N[C@@H](CC7=CC=CC=C7)CO [QS11] + CC1(C)CCC(c2ccc(Cl)cc2)=C(CN2CCN(c3ccc(C(=O)NS(=O)(=O)c4ccc(N[C@H](CCN5CCOCC5)CSc5ccccc5)c(S(=O)(=O)C(F)(F)F)c4)cc3)CC2)C1 [Navitoclax] (partner 0.5 µM)
Method in brief: as §1

Cell Line | relative viability (QS11 + AZD7762; first compound 0.08 µM) | relative viability (QS11 + AZD7762; first compound 0.253 µM) | relative viability (QS11 + AZD7762; first compound 0.8 µM) | relative viability (QS11 + AZD7762; first compound 2.53 µM) | relative viability (QS11 + AZD7762; first compound 8 µM) | relative viability (AZ628 + Palbociclib; first compound 0.08 µM) | relative viability (AZ628 + Palbociclib; first compound 0.253 µM) | relative viability (AZ628 + Palbociclib; first compound 0.8 µM) | relative viability (AZ628 + Palbociclib; first compound 2.53 µM) | relative viability (AZ628 + Palbociclib; first compound 8 µM) | relative viability ([1]; first compound 0.8 µM) | relative viability ([1]; first compound 8 µM) | relative viability (QS11 + Navitoclax; first compound 0.08 µM) | relative viability (QS11 + Navitoclax; first compound 0.253 µM) | relative viability (QS11 + Navitoclax; first compound 0.8 µM) | relative viability (QS11 + Navitoclax; first compound 2.53 µM) | relative viability (QS11 + Navitoclax; first compound 8 µM) | relative viability ([1]; first compound 0.08 µM) | relative viability ([1]; first compound 2.53 µM)
NCI-H1648 | 0.727 | 0.741 | 0.747 | 0.865 | 0.544 | 0.264 | 0.268 | 0.224 | 0.253 | 0.274 | 0.242 | 0.243 | – | – | – | – | – | – | –
NCI-H1650 | – | – | – | – | – | 0.471 | 0.372 | 0.335 | 0.302 | 0.42 | 0.321 | 0.375 | 1.18 | 1.12 | 1.07 | 1.1 | 1.2 | 0.377 | 0.325
NCI-H1703 | – | 0.12 | 0.121 | 0.121 | 0.168 | – | – | – | – | – | – | – | 1.41 | 1.11 | 1.18 | 1.3 | 1.35 | – | –
NCI-H2009 | – | – | – | – | – | 0.201 | 0.177 | 0.141 | 0.125 | 0.174 | 0.166 | 0.203 | 1.13 | 1.19 | 0.972 | 1.02 | 0.981 | 0.208 | 0.225
NCI-H2023 | – | – | – | – | – | 0.45 | 0.381 | 0.239 | 0.406 | 0.153 | 0.333 | 0.431 | 1.02 | 1.02 | 0.925 | 1.16 | 1.12 | 0.393 | 0.344
NCI-H2228 | – | – | – | – | – | 0.763 | 0.605 | 0.843 | 0.737 | 0.619 | 0.881 | 0.998 | 0.852 | 1.1 | 0.483 | 0.756 | 1.29 | 0.805 | 0.419
NCI-H2342 | 0.489 | 0.47 | 0.502 | 0.488 | 0.456 | 0.544 | 0.513 | 0.562 | 0.511 | 0.537 | 0.527 | 0.538 | – | – | – | – | – | 0.539 | 0.493
SK-LU-1 | – | – | – | – | – | 0.284 | 0.286 | 0.349 | 0.314 | 0.288 | 0.338 | 0.347 | 0.795 | 0.871 | 0.646 | 0.487 | 0.479 | 0.381 | 0.339
SK-MES-1 | – | – | – | – | – | 0.361 | 0.343 | 0.246 | 0.324 | 0.328 | 0.303 | 0.314 | 1.43 | 1.25 | 1.21 | 1.45 | 1.37 | 0.308 | 0.298
SW 900 | 0.603 | 0.549 | 0.611 | 0.502 | 0.504 | 0.595 | 0.542 | 0.537 | 0.555 | 0.497 | – | 0.655 | – | – | – | – | – | 0.55 | 0.59
SW 1573 | – | – | – | – | – | 0.409 | 0.312 | 0.275 | 0.291 | 0.173 | 0.353 | 0.488 | 0.937 | 0.795 | 0.9 | 0.842 | 0.564 | 0.412 | 0.355
UMC-11 | – | – | – | – | – | 0.405 | 0.299 | 0.347 | 0.324 | 0.292 | 0.342 | 0.345 | 0.293 | 0.308 | 0.298 | 0.424 | 0.54 | 0.309 | 0.295
